Experiments:
SK-MEL-2 cell = assay: Cytotoxicity test (SRB method) for SK-MEL-2 cells; assay type: cell-based, human; conditions: SK-MEL-2, SRB, 48 hours incubation
Text: (§1) Human lung carcinomas A549 and […] were used for determining cytotoxicity of the compounds of the present invention according to the Sulfrhodamine-B (SRB) method which was developed by NCI in 1989 in order to determine in vitro anticancer activity of drugs.
(§2) Cells to be used in the experiment were separated from a surface using 0.5% Trypsin-EDTA solution and suspended in a density of 5×10^4 cell/ml therein. The cell suspension was introduced into a 96-well plate in an amount of 180/well and incubated for 24 hours in a 5% CO2 incubator of 37° C. Samples were dissolved in dimethylsulfoxide and then diluted by water distilled in advance for three times just before the experiment. Forty-one (41) samples were prepared into 4 types of final concentrations, i.e., 0.1, 0.03, 0.01 and 0.003 mg per ml of the medium. The diluted sample solutions were added to the 96-well plate in the amount of 20 μl/well and incubated for 48 hours in a CO2 incubator of 37° C. At the time of adding the samples, Tz (Time zero) plate was taken. The medium was removed from the Tz plate and each of the plates after incubation were completed. Ten (10)% […] (TCA) was added in the amount of […], and allowed to stand for 1 hour at 4° C. to fix the cells on the bottom surface of the plate. After the cells were fixed, the plate was washed five to six times with water to completely remove the remaining TCA solution and then dried at room temperature to completely remove the moisture. To the fully dried plate was introduced a dye solution in the amount of […] in which 0.4% SRB was dissolved in 1% acetic acid solution. […] After the dyeing process, the plate was dried again at room temperature. 100 ml of 10 mM Tris solution was added thereto in order to dissolve the dye, and then O.D. (optical density) was determined by microplate reader at 520 nm.
(§3) ED50 values for cancer cells were calculated as follows. The amount of SRB protein was analyzed at the time when incubation started by the addition of the sample. This amount was named time zero (Tz). The O.D. value obtained from a group which was not treated by the sample was named Control group (C) and the O.D. value obtained from a group which was treated by the sample was named Test group (T).
(§4) The degree of cytotoxicity of the compounds was calculated from Tz, C and T values according to the following equation.
(§5) That is, in the case of Tz≧T, the degree was calculated by
(§6) (T−Tz)/(C−Tz)×100(%), and
(§7) • in the case of Tz<T, the degree was calculated by […].
(§8) From the values thus obtained, ED50 value which is defined as the concentration at which growth of the cancer cell is inhibited by 50% was calculated using the regression function of Excel program.

A549 cell = assay: Cytotoxicity test (SRB method) for A549 cells; assay type: cell-based, human; conditions: A549, SRB, 48 hours incubation, Table 2
Text: as §1, §2, §3, §4, §5, §6, §7, §8

SMILES: CCCCCCCCCCCCCCCCCC(=O)Oc1c(OC)cc(C2c3cc4c(cc3CC3COC(=O)C32)OCO4)cc1OC (centres unmarked) [Compound 1c-15, 4′-demethyl-4′-O-octadecanoyl-1-deoxypodophyllotoxin]
- ED50(mg/mL) for SK-MEL-2 (SK-MEL-2 cell): >5 mg/mL
- ED50(mg/mL) for A549 (A549 cell): 2.670 mg/mL

SMILES: CCCCCCCCCCCCCC(=O)Oc1c(OC)cc(C2c3cc4c(cc3CC3COC(=O)C32)OCO4)cc1OC (centres unmarked) [Compound 1c-12, 4′-demethyl-4′-O-tetradecanoyl-1-deoxypodophyllotoxin]
- ED50(mg/mL) for SK-MEL-2 (SK-MEL-2 cell): 0.050 mg/mL
- ED50(mg/mL) for A549 (A549 cell): 0.041 mg/mL

SMILES: CCCCCCCC/C=C/CCCCCCCC(=O)Oc1c(OC)cc(C2c3cc4c(cc3CC3COC(=O)C32)OCO4)cc1OC (stereo not drawn) [Compound 1c-17, 4′-demethyl-4′-O-(trans-9′-octadecenoyl)-1-deoxypodophyllo-toxin]
- ED50(mg/mL) for SK-MEL-2 (SK-MEL-2 cell): 0.550 mg/mL
- ED50(mg/mL) for A549 (A549 cell): 0.367 mg/mL

SMILES: CCCCC/C=C/C/C=C/CCCCCCCC(=O)Oc1c(OC)cc(C2c3cc4c(cc3CC3COC(=O)C32)OCO4)cc1OC (stereo not drawn) [Compound 1c-21, 4′-demethyl-4′-O-(trans-9′,12′-octadecadienoyl)-1-deoxypodophyllo-toxin]
- ED50(mg/mL) for SK-MEL-2 (SK-MEL-2 cell): 0.110 mg/mL
- ED50(mg/mL) for A549 (A549 cell): 0.259 mg/mL

SMILES: CCCCCCCC/C=C/CCCCCCCCCC(=O)Oc1c(OC)cc(C2c3cc4c(cc3CC3COC(=O)C32)OCO4)cc1OC (stereo not drawn) [Compound 1c-26, 4′-demethyl-4′-O-(trans-11′-eicosenoyl)-1-deoxypodophyllotoxin]
- ED50(mg/mL) for SK-MEL-2 (SK-MEL-2 cell): 1.130 mg/mL
- ED50(mg/mL) for A549 (A549 cell): 1.660 mg/mL

SMILES: CCCCCCCC/C=C\CCCCCCCC(=O)Oc1c(OC)cc(C2c3cc4c(cc3CC3COC(=O)C32)OCO4)cc1OC (stereo not drawn) [Compound 1c-16, 4′-demethyl-4′-O-(cis-9′-octadecenoyl)-1-deoxypodophyllo-toxin]
- ED50(mg/mL) for SK-MEL-2 (SK-MEL-2 cell): 0.159 mg/mL
- ED50(mg/mL) for A549 (A549 cell): 0.179 mg/mL

SMILES: CCCCC/C=C\C/C=C\C/C=C\CCCCC(=O)Oc1c(OC)cc(C2c3cc4c(cc3CC3COC(=O)C32)OCO4)cc1OC (stereo not drawn) [Compound 1c-23, 4′-demethyl-4′-O-(cis-6′,9′,12′-octadecatrienoyl)-1-deoxypodophyllotoxin]
- ED50(mg/mL) for SK-MEL-2 (SK-MEL-2 cell): 0.041 mg/mL
- ED50(mg/mL) for A549 (A549 cell): 0.085 mg/mL

SMILES: COc1cc(C2c3cc4c(cc3CC3COC(=O)C32)OCO4)cc(OC)c1OC(=O)CCCCCCCCCCC(=O)O (centres unmarked) [Compound 1c-36, 4′-demethyl-4′-O-(11′-carboxy-undecanoyl)-1-deoxypodophyllotoxin]
- ED50(mg/mL) for SK-MEL-2 (SK-MEL-2 cell): 0.068 mg/mL
- ED50(mg/mL) for A549 (A549 cell): 0.046 mg/mL

SMILES: CCC(=O)Oc1c(OC)cc(C2c3cc4c(cc3CC3COC(=O)C32)OCO4)cc1OC (centres unmarked) [Compound 1c-4, 4′-demethyl-4′-O-propanoyl-1-deoxypodophyllotoxin]
- ED50(mg/mL) for SK-MEL-2 (SK-MEL-2 cell): 0.010 mg/mL
- ED50(mg/mL) for A549 (A549 cell): 0.004 mg/mL

SMILES: CCCCCC/C=C\CCCCCCCC(=O)Oc1c(OC)cc(C2c3cc4c(cc3CC3COC(=O)C32)OCO4)cc1OC (stereo not drawn) [Compound 1c-14, 4′-demethyl-4′-O-(cis-9′-hexadecenoyl)-1-deoxypodophyllo-toxin]
- ED50(mg/mL) for SK-MEL-2 (SK-MEL-2 cell): 0.065 mg/mL
- ED50(mg/mL) for A549 (A549 cell): 0.733 mg/mL

SMILES: CCCCCCCCCCCCCCCCCCCC(=O)Oc1c(OC)cc(C2c3cc4c(cc3CC3COC(=O)C32)OCO4)cc1OC (centres unmarked) [Compound 1c-24, 4′-demethyl-4′-O-eicosanoyl-1-deoxypodophyllotoxin]
- ED50(mg/mL) for SK-MEL-2 (SK-MEL-2 cell): >5 mg/mL
- ED50(mg/mL) for A549 (A549 cell): >5 mg/mL

SMILES: CCCC(=O)Oc1c(OC)cc(C2c3cc4c(cc3CC3COC(=O)C32)OCO4)cc1OC (centres unmarked) [Compound 1c-5, 4′-demethyl-4′-O-butanoyl-1-deoxypodophyllotoxin]
- ED50(mg/mL) for SK-MEL-2 (SK-MEL-2 cell): 0.017 mg/mL
- ED50(mg/mL) for A549 (A549 cell): 0.005 mg/mL

SMILES: COc1cc(C2c3cc4c(cc3CC3COC(=O)C32)OCO4)cc(OC)c1OC(=O)/C=C(C)/C=C/C=C(C)/C=C/C1=C(C)CCCC1(C)C (centres unmarked) [Compound 1c-32, 4′-demethyl-4′-O-retinoyl-1-deoxypodophyllotoxin]
- ED50(mg/mL) for SK-MEL-2 (SK-MEL-2 cell): 0.387 mg/mL
- ED50(mg/mL) for A549 (A549 cell): 2.130 mg/mL

SMILES: CCCCCCC(=O)Oc1c(OC)cc(C2c3cc4c(cc3CC3COC(=O)C32)OCO4)cc1OC (centres unmarked) [Compound 1c-7, 4′-demethyl-4′-O-heptanoyl-1-deoxypodophyllotoxin]
- ED50(mg/mL) for SK-MEL-2 (SK-MEL-2 cell): 0.078 mg/mL
- ED50(mg/mL) for A549 (A549 cell): 0.013 mg/mL

SMILES: COc1cc(C2c3cc4c(cc3CC3COC(=O)C32)OCO4)cc(OC)c1OC(=O)CCCCCCC(=O)O (centres unmarked) [Compound 1c-34, 4′-demethyl-4′-O-(7′-carboxy-heptanoyl)-1-deoxypodophyllotoxin]
- ED50(mg/mL) for SK-MEL-2 (SK-MEL-2 cell): 0.066 mg/mL
- ED50(mg/mL) for A549 (A549 cell): 0.175 mg/mL

SMILES: CC/C=C\C/C=C\C/C=C\C/C=C\C/C=C\C/C=C\CCC(=O)Oc1c(OC)cc(C2c3cc4c(cc3CC3COC(=O)C32)OCO4)cc1OC (stereo not drawn) [Compound 1c-31, 4′-demethyl-4′-O-(cis-4′,7′,10′,13′,16′,19′-docohexaenoyl)-1-deoxypodophyllotoxin]
- ED50(mg/mL) for SK-MEL-2 (SK-MEL-2 cell): 0.035 mg/mL
- ED50(mg/mL) for A549 (A549 cell): 0.119 mg/mL

SMILES: CCCCCCCCCCCCCCCC(=O)Oc1c(OC)cc(C2c3cc4c(cc3CC3COC(=O)C32)OCO4)cc1OC (centres unmarked) [Compound 1c-13, 4′-demethyl-4′-O-hexadecanoyl-1-deoxypodophyllotoxin]
- ED50(mg/mL) for SK-MEL-2 (SK-MEL-2 cell): 0.290 mg/mL
- ED50(mg/mL) for A549 (A549 cell): 0.268 mg/mL

SMILES: COc1cc(C2c3cc4c(cc3CC3COC(=O)C32)OCO4)cc(OC)c1OC(=O)CC(C)C (centres unmarked) [Compound 1c-6, 4′-demethyl-4′-O-(3′-methylbutanoyl)-1-deoxypodophyllotoxin]
- ED50(mg/mL) for SK-MEL-2 (SK-MEL-2 cell): 0.089 mg/mL
- ED50(mg/mL) for A549 (A549 cell): 0.006 mg/mL

SMILES: COc1cc(C2c3cc4c(cc3CC3COC(=O)C32)OCO4)cc(OC)c1OC(=O)c1ccccc1 (centres unmarked) [Compound 1c-10, 4′-demethyl-4′-O-benzoyl-1-deoxypodophyllotoxin]
- ED50(mg/mL) for SK-MEL-2 (SK-MEL-2 cell): 0.066 mg/mL
- ED50(mg/mL) for A549 (A549 cell): 0.095 mg/mL

SMILES: CC/C=C\C/C=C\C/C=C\CCCCCCCC(=O)Oc1c(OC)cc(C2c3cc4c(cc3CC3COC(=O)C32)OCO4)cc1OC (stereo not drawn) [Compound 1c-22, 4′-demethyl-4′-O-(cis-9′,12′,15′-octadecatrienoyl)-1-deoxypodophyllotoxin]
- ED50(mg/mL) for SK-MEL-2 (SK-MEL-2 cell): 0.048 mg/mL
- ED50(mg/mL) for A549 (A549 cell): 0.084 mg/mL

SMILES: COc1cc(C2c3cc4c(cc3CC3COC(=O)C32)OCO4)cc(OC)c1OC(=O)CCCCCCCCC(=O)O (centres unmarked) [Compound 1c-35, 4′-demethyl-4′-O-(9′-carboxy-nonanoyl)-1-deoxypodophyllotoxin]
- ED50(mg/mL) for SK-MEL-2 (SK-MEL-2 cell): 0.015 mg/mL
- ED50(mg/mL) for A549 (A549 cell): 0.014 mg/mL

SMILES: CCCCCCCCCCCCCCCCCCCCCC(=O)Oc1c(OC)cc(C2c3cc4c(cc3CC3COC(=O)C32)OCO4)cc1OC (centres unmarked) [Compound 1c-29, 4′-demethyl-4′-O-docosanoyl-1-deoxypodophyllotoxin]
- ED50(mg/mL) for SK-MEL-2 (SK-MEL-2 cell): >5 mg/mL
- ED50(mg/mL) for A549 (A549 cell): >5 mg/mL

SMILES: CCCCC/C=C\C/C=C\CCCCCCCCCC(=O)Oc1c(OC)cc(C2c3cc4c(cc3CC3COC(=O)C32)OCO4)cc1OC (stereo not drawn) [Compound 1c-27, 4′-demethyl-4′-O-(cis-11′,14′-eicosadienoyl)-1-deoxypodophyllotoxin]
- ED50(mg/mL) for SK-MEL-2 (SK-MEL-2 cell): 0.347 mg/mL
- ED50(mg/mL) for A549 (A549 cell): 0.870 mg/mL

SMILES: CCCCCC/C=C/CCCCCCCCCC(=O)Oc1c(OC)cc(C2c3cc4c(cc3CC3COC(=O)C32)OCO4)cc1OC (stereo not drawn) [Compound 1c-19, 4′-demethyl-4′-O-(trans-11′-octadecenoyl)-1-deoxypodophyllo-toxin]
- ED50(mg/mL) for SK-MEL-2 (SK-MEL-2 cell): 0.253 mg/mL
- ED50(mg/mL) for A549 (A549 cell): 1.010 mg/mL

SMILES: COc1cc(C2c3cc4c(cc3CC3COC(=O)C32)OCO4)cc(OC)c1OC(=O)CCCCCCCCCCCCC(=O)O (centres unmarked) [Compound 1c-37, 4′-demethyl-4′-O-(13′-carboxy-tridecanoyl)-1-deoxypodophyllotoxin]
- ED50(mg/mL) for SK-MEL-2 (SK-MEL-2 cell): 0.070 mg/mL
- ED50(mg/mL) for A549 (A549 cell): 0.019 mg/mL

Reference: patent US6894075B2, “4′-demethyl-4′-O-substituted-1-deoxypodophyllotoxin derivative and geometric isomer thereof, process for the preparation thereof and anti-cancer composition comprising the same” (priority 2000, dated 2005)
